In ChEMBL document CHEMBL6134788, “Development of naphthalimide hydrazide derivatives as potent antibacterial agents against carbapenem-resistant A. baumannii” (RSC Med Chem, 2024):
≈ marks a conversion by molar mass, not a printed value. Positions of bridges follow the written chain, without caps; N, C: chain ends. Non-standard residues stand in square brackets, D forms with d. Residues, ends and D or L forms follow the SMILES beside them. *: point of attachment. X1 = CC[C@H](C)CCCCC(=O)*; Dab = NCC[C@H](N)C(=O)O

Experiments:
Acinetobacter baumannii [1] = assay: Antibacterial activity against Acinetobacter baumannii assessed as inhibition of bacterial growth by CLSI protocol based assay; assay type: functional
Acinetobacter baumannii [2] = assay: Antibacterial activity against Acinetobacter baumannii assessed as inhibition of bacterial growth by twofold serial dilution method; assay type: functional
Acinetobacter baumannii [3] = assay: Antibacterial activity against multi-drug resistant Acinetobacter baumannii clinical isolate 12 assessed as inhibition of bacterial growth incubated for 16 to 18 hrs by CLSI protocol based method; assay type: functional; conditions: time 16-18 hrs, read-out: MIC100
Acinetobacter baumannii [4] = assay: Antibacterial activity against multi-drug resistant Acinetobacter baumannii clinical isolate 4 assessed as inhibition of bacterial growth incubated for 16 to 18 hrs by CLSI protocol based method; assay type: functional; conditions: time 16-18 hrs, read-out: MIC100
Acinetobacter baumannii [5] = assay: Antibacterial activity against multi-drug resistant Acinetobacter baumannii clinical isolate 7 assessed as inhibition of bacterial growth incubated for 16 to 18 hrs by CLSI protocol based method; assay type: functional; conditions: time 16-18 hrs, read-out: MIC100
Acinetobacter baumannii [6] = assay: Antibacterial activity against multi-drug resistant Acinetobacter baumannii clinical isolate 3 assessed as inhibition of bacterial growth incubated for 16 to 18 hrs by CLSI protocol based method; assay type: functional; conditions: time 16-18 hrs, read-out: MIC100
Acinetobacter baumannii [7] = assay: Antibacterial activity against multi-drug resistant Acinetobacter baumannii WL-487 assessed as inhibition of bacterial growth incubated for 16 to 18 hrs by CLSI protocol based method; assay type: functional; conditions: time 16-18 hrs, read-out: MIC100
Acinetobacter baumannii [8] = assay: Antibacterial activity against multi-drug resistant Acinetobacter baumannii clinical isolate 9 assessed as inhibition of bacterial growth incubated for 16 to 18 hrs by CLSI protocol based method; assay type: functional; conditions: time 16-18 hrs, read-out: MIC100
Acinetobacter baumannii [9] = assay: Antibacterial activity against multi-drug resistant Acinetobacter baumannii clinical isolate 8 assessed as inhibition of bacterial growth incubated for 16 to 18 hrs by CLSI protocol based method; assay type: functional; conditions: time 16-18 hrs, read-out: MIC100
Acinetobacter baumannii [10] = assay: Antibacterial activity against multi-drug resistant Acinetobacter baumannii 5-032 assessed as inhibition of bacterial growth incubated for 16 to 18 hrs by CLSI protocol based method; assay type: functional; conditions: time 16-18 hrs, read-out: MIC100
Acinetobacter baumannii [11] = assay: Antibacterial activity against carbapenem-resistant Acinetobacter baumannii BAA 1605 assessed as inhibition of bacterial growth incubated for 16 to 18 hrs by CLSI protocol based method; assay type: functional; conditions: time 16-18 hrs, read-out: MIC100
Acinetobacter baumannii [12] = assay: Antibacterial activity against multi-drug resistant Acinetobacter baumannii WL-136 assessed as inhibition of bacterial growth incubated for 16 to 18 hrs by CLSI protocol based method; assay type: functional; conditions: time 16-18 hrs, read-out: MIC100
Acinetobacter baumannii [13] = assay: Antibacterial activity against multi-drug resistant Acinetobacter baumannii clinical isolate 6 assessed as inhibition of bacterial growth incubated for 16 to 18 hrs by CLSI protocol based method; assay type: functional; conditions: time 16-18 hrs, read-out: MIC100
Acinetobacter baumannii [14] = assay: Antibacterial activity against multi-drug resistant Acinetobacter baumannii 5-143 assessed as inhibition of bacterial growth incubated for 16 to 18 hrs by CLSI protocol based method; assay type: functional; conditions: time 16-18 hrs, read-out: MIC100
Acinetobacter baumannii [15] = assay: Antibacterial activity against multi-drug resistant Acinetobacter baumannii clinical isolate 1 assessed as inhibition of bacterial growth incubated for 16 to 18 hrs by CLSI protocol based method; assay type: functional; conditions: time 16-18 hrs, read-out: MIC100
Acinetobacter baumannii [16] = assay: Antibacterial activity against multi-drug resistant Acinetobacter baumannii H72721 assessed as inhibition of bacterial growth incubated for 16 to 18 hrs by CLSI protocol based method; assay type: functional; conditions: time 16-18 hrs, read-out: MIC100
Acinetobacter baumannii [17] = assay: Antibacterial activity against multi-drug resistant Acinetobacter baumannii clinical isolate 11 assessed as inhibition of bacterial growth incubated for 16 to 18 hrs by CLSI protocol based method; assay type: functional; conditions: time 16-18 hrs, read-out: MIC100
Acinetobacter baumannii [18] = assay: Antibacterial activity against multi-drug resistant Acinetobacter baumannii Naval-81 assessed as inhibition of bacterial growth incubated for 16 to 18 hrs by CLSI protocol based method; assay type: functional; conditions: time 16-18 hrs, read-out: MIC100
Acinetobacter baumannii [19] = assay: Antibacterial activity against multi-drug resistant Acinetobacter baumannii Naval-18 assessed as inhibition of bacterial growth incubated for 16 to 18 hrs by CLSI protocol based method; assay type: functional; conditions: time 16-18 hrs, read-out: MIC100
Acinetobacter baumannii [20] = assay: Antibacterial activity against multi-drug resistant Acinetobacter baumannii clinical isolate 5 assessed as inhibition of bacterial growth incubated for 16 to 18 hrs by CLSI protocol based method; assay type: functional; conditions: time 16-18 hrs, read-out: MIC100
Acinetobacter baumannii [21] = assay: Antibacterial activity against Acinetobacter baumannii ATCC 17978 assessed as inhibition of bacterial growth incubated for 16 to 18 hrs by CLSI protocol based method; assay type: functional; conditions: time 16-18 hrs, read-out: MIC100
Acinetobacter baumannii [22] = assay: Antibacterial activity against multi-drug resistant Acinetobacter baumannii clinical isolate 10 assessed as inhibition of bacterial growth incubated for 16 to 18 hrs by CLSI protocol based method; assay type: functional; conditions: time 16-18 hrs, read-out: MIC100
Acinetobacter baumannii [23] = assay: Antibacterial activity against multi-drug resistant Acinetobacter baumannii 5-109 assessed as inhibition of bacterial growth incubated for 16 to 18 hrs by CLSI protocol based method; assay type: functional; conditions: time 16-18 hrs, read-out: MIC100
Acinetobacter baumannii [24] = assay: Antibacterial activity against multi-drug resistant Acinetobacter baumannii NR-17777 assessed as inhibition of bacterial growth incubated for 16 to 18 hrs by CLSI protocol based method; assay type: functional; conditions: time 16-18 hrs, read-out: MIC100
Acinetobacter baumannii [25] = assay: Antibacterial activity against multi-drug resistant Acinetobacter baumannii BC-5 assessed as inhibition of bacterial growth incubated for 16 to 18 hrs by CLSI protocol based method; assay type: functional; conditions: time 16-18 hrs, read-out: MIC100
Acinetobacter baumannii [26] = assay: Antibacterial activity against multi-drug resistant Acinetobacter baumannii 5-189 assessed as inhibition of bacterial growth incubated for 16 to 18 hrs by CLSI protocol based method; assay type: functional; conditions: time 16-18 hrs, read-out: MIC100
Acinetobacter baumannii [27] = assay: Antibacterial activity against multi-drug resistant Acinetobacter baumannii clinical isolate 2 assessed as inhibition of bacterial growth incubated for 16 to 18 hrs by CLSI protocol based method; assay type: functional; conditions: time 16-18 hrs, read-out: MIC100
Acinetobacter baumannii [28] = assay: Antibacterial activity against multi-drug resistant Acinetobacter baumannii Naval-17 assessed as inhibition of bacterial growth incubated for 16 to 18 hrs by CLSI protocol based method; assay type: functional; conditions: time 16-18 hrs, read-out: MIC100
Acinetobacter baumannii [29] = assay: Antibacterial activity against Acinetobacter baumannii; assay type: functional
Pseudomonas aeruginosa = assay: Antibacterial activity against Pseudomonas aeruginosa ATCC 27853 assessed as inhibition of bacterial growth incubated for 16 to 18 hrs by CLSI protocol based method; assay type: functional; conditions: time 16-18 hrs, read-out: MIC100
Klebsiella pneumoniae = assay: Antibacterial activity against Klebsiella pneumoniae BAA 1705 assessed as inhibition of bacterial growth incubated for 16 to 18 hrs by CLSI protocol based method; assay type: functional; conditions: time 16-18 hrs, read-out: MIC100
[30] = Selectivity index, ratio of CC50 for cytotoxicity against African green monkey VERO cells to MIC for antibacterial activity against carbapenem-resistant Acinetobacter baumannii BAA 1605 assessed as inhibition of bacterial growth; assay type: toxicity, cell-based; conditions: read-out: Selectivity Index
Staphylococcus aureus = assay: Antibacterial activity against Staphylococcus aureus ATCC 29213 assessed as inhibition of bacterial growth incubated for 16 to 18 hrs by CLSI protocol based method; assay type: functional; conditions: time 16-18 hrs, read-out: MIC100
Escherichia coli = assay: Antibacterial activity against Escherichia coli ATCC 25922 assessed as inhibition of bacterial growth incubated for 16 to 18 hrs by CLSI protocol based method; assay type: functional; conditions: time 16-18 hrs, read-out: MIC100
[31] = Cytotoxicity against African green monkey Vero cells assessed as reduction in cell viability incubated for 72 hrs by MTT assay; assay type: toxicity, cell-based; conditions: chlorocebus sabaeus

| SMILES | MIC (Acinetobacter baumannii [3]) | MIC (Acinetobacter baumannii [4]) | MIC (Acinetobacter baumannii [5]) | MIC (Acinetobacter baumannii [6]) | MIC (Acinetobacter baumannii [7]) | MIC (Acinetobacter baumannii [8]) | MIC (Acinetobacter baumannii [9]) | MIC (Acinetobacter baumannii [10]) | MIC (Acinetobacter baumannii [11]) | MIC (Acinetobacter baumannii [12]) | MIC (Acinetobacter baumannii [13]) | MIC (Acinetobacter baumannii [14]) | MIC (Acinetobacter baumannii [15]) | MIC (Acinetobacter baumannii [16]) | MIC (Acinetobacter baumannii [17]) | MIC (Acinetobacter baumannii [18]) | MIC (Acinetobacter baumannii [19]) | MIC (Acinetobacter baumannii [20]) | MIC (Acinetobacter baumannii [21]) | MIC (Acinetobacter baumannii [22]) | further results |
| --- | --- | --- | --- | --- | --- | --- | --- | --- | --- | --- | --- | --- | --- | --- | --- | --- | --- | --- | --- | --- | --- |
| CN1C(=O)/C(=C/NNc2ccc(C#N)cc2)SC1=S | – | – | – | – | – | – | – | – | – | – | – | – | – | – | – | – | – | – | – | – | MIC (Acinetobacter baumannii [1]): 16 mg/L (≈ 55.1 µM) |
| CCCCCCCCCCN1CCN(c2ccc3c4c(cccc24)C(=O)N(CC(O)Cn2c([N+](=O)[O-])cnc2C)C3=O)CC1 (stereo unspecified) | – | – | – | – | – | – | – | – | – | – | – | – | – | – | – | – | – | – | – | – | MIC (Acinetobacter baumannii [2]): 13 µM (≈ 7.86 µg/mL) |
| CC(C)CCCCC(=O)N[C@@H](CCN)C(=O)N[C@H](C(=O)N[C@@H](CCN)C(=O)N[C@H]1CCNC(=O)[C@H]([C@@H](C)O)NC(=O)[C@H](CCN)NC(=O)[C@H](CCN)NC(=O)[C@H](CC(C)C)NC(=O)[C@@H](Cc2ccccc2)NC(=O)[C@H](CCN)NC1=O)[C@@H](C)O.CC[C@H](C)CCCCC(=O)N[C@@H](CCN)C(=O)N[C@H](C(=O)N[C@@H](CCN)C(=O)N[C@H]1CCNC(=O)[C@H]([C@@H](C)O)NC(=O)[C@H](CCN)NC(=O)[C@H](CCN)NC(=O)[C@H](CC(C)C)NC(=O)[C@@H](Cc2ccccc2)NC(=O)[C@H](CCN)NC1=O)[C@@H](C)O (X1-[Dab]T[Dab][Dab][Dab][dF]L[Dab][Dab]T; lactam 4-C) | 0.25 mg/L | 0.25 mg/L | 0.5 mg/L | 0.25 mg/L | 0.5 mg/L | 0.5 mg/L | 0.5 mg/L | 0.125 mg/L | 0.25 mg/L | 0.25 mg/L | 0.25 mg/L | 0.25 mg/L | 0.25 mg/L | 0.25 mg/L | 0.25 mg/L | 0.125 mg/L | 0.25 mg/L | 0.25 mg/L | 0.25 mg/L | 0.25 mg/L | MIC (Acinetobacter baumannii [23]): 0.25 mg/L; MIC (Acinetobacter baumannii [24]): 0.25 mg/L; MIC (Acinetobacter baumannii [25]): 0.25 mg/L; MIC (Acinetobacter baumannii [26]): 0.25 mg/L; MIC (Acinetobacter baumannii [27]): 0.25 mg/L; MIC (Acinetobacter baumannii [28]): 0.25 mg/L |
| N#Cc1ccc(NNC(=O)c2ccc(Br)cc2)cc1 | – | – | – | – | – | – | – | – | – | – | – | – | – | – | – | – | – | – | – | – | MIC (Acinetobacter baumannii [29]): 0.25 mg/L (≈ 0.791 µM) |
| N#Cc1ccc(NNC(=O)CCN2C(=O)c3cccc4cccc(c34)C2=O)cc1 | 2 mg/L (≈ 5.2 µM) | 2 mg/L (≈ 5.2 µM) | 1 mg/L (≈ 2.6 µM) | 1 mg/L (≈ 2.6 µM) | 4 mg/L (≈ 10.4 µM) | 2 mg/L (≈ 5.2 µM) | 2 mg/L (≈ 5.2 µM) | 2 mg/L (≈ 5.2 µM) | 0.5 mg/L (≈ 1.3 µM) | 2 mg/L (≈ 5.2 µM) | 4 mg/L (≈ 10.4 µM) | 1 mg/L (≈ 2.6 µM) | 1 mg/L (≈ 2.6 µM) | 2 mg/L (≈ 5.2 µM) | 2 mg/L (≈ 5.2 µM) | 2 mg/L (≈ 5.2 µM) | 2 mg/L (≈ 5.2 µM) | 4 mg/L (≈ 10.4 µM) | 2 mg/L (≈ 5.2 µM) | 8 mg/L (≈ 20.8 µM) | MIC (Pseudomonas aeruginosa): > 64 mg/L; MIC (Klebsiella pneumoniae): > 64 mg/L; selectivity ratio [30]: > 200; MIC (Staphylococcus aureus): > 64 mg/L; MIC (Escherichia coli): > 64 mg/L; MIC (Acinetobacter baumannii [23]): 2 mg/L (≈ 5.2 µM); MIC (Acinetobacter baumannii [24]): 2 mg/L (≈ 5.2 µM); MIC (Acinetobacter baumannii [25]): 2 mg/L (≈ 5.2 µM); MIC (Acinetobacter baumannii [26]): 4 mg/L (≈ 10.4 µM); MIC (Acinetobacter baumannii [27]): 2 mg/L (≈ 5.2 µM); MIC (Acinetobacter baumannii [28]): 2 mg/L (≈ 5.2 µM); CC50 at 72 h [31]: > 100 mg/L |
